Target: T1, P2X7 receptor (Homo sapiens, UniProt Q99572)
T1 construct: host or cells: SH-SY5Y
T1 sequence (Q99572 1-595): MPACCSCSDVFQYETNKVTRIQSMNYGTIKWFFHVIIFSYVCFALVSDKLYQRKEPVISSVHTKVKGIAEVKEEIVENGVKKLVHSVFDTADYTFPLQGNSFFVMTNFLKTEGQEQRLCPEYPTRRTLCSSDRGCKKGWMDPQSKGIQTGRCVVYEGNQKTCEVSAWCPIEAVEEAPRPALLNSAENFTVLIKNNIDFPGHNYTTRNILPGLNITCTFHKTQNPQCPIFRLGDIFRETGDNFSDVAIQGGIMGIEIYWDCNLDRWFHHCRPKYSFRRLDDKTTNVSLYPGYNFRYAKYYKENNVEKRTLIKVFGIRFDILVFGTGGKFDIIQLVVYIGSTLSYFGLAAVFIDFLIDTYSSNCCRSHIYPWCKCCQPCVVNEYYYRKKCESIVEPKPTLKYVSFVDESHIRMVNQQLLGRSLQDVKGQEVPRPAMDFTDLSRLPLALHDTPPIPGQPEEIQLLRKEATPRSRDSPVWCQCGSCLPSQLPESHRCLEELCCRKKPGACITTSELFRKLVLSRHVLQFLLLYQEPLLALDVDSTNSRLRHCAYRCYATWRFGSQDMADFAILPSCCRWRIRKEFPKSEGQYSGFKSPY
Assay: High throughput P2X7 calcium mobilization assay (Example 4A)
Format: cell-based
Settings: SH-SY5Y cells, 50% decrease in fluorescence response of cells exposed to 80 μM BzATP
Outline: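 SH-SY5Y cells loaded with 2.3 μM Fluo-4 AM for 1 h at 37 °C, then preincubated 1 h at room temperature with test compound (final 1–2500 nM) in low-sodium sucrose buffer, pH 7.4. Antagonism measured against 80 μM BzATP (about EC50) as peak FLIPR calcium fluorescence over 2 min, corrected by no-agonist background.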

Row | IC50 (Table I) [nM] | IC50 (flag after the MS data in Examples 1-2) [nM] | SMILES
1 | ≤ 2000 | – | O=C(NCC1(c2cccnc2)CCCCC1)c1sc(-n2ccnn2)nc1C(F)(F)F [Compound 308, N-[(1-pyridin-3-ylcyclohexyl)methyl]-2-(1H-1,2,3-triazol-1-yl)-4-(trifluoromethyl)-1,3-thiazole-5-carboxamide]
2 | ≤ 2000 | – | COc1nccnc1-n1cc(C(=O)NCC23CC4CC(CC(C4)C2)C3)c(C)n1 [Compound 42, N-(adamantan-1-ylmethyl)-1-(3-methoxypyrazin-2-yl)-3-methyl-1H-pyrazole-4-carboxamide]
3 | – | ≤ 2000 | Cc1ccc(C(CNC(=O)c2sc(-c3cccnc3)nc2C)CC(C)C)cc1 (stereo not drawn) [Compound 33, N-[4-methyl-2-(4-methylphenyl)pentyl}-4-methyl-2-pyridin-3-yl-1,3-thiazole-5-carboxamide]

Reference: patent publication US9133204B2, “5-membered heterocyclic amides and related compounds” (H. Lundbeck A/S, priority 2007, dated 2015)
